In US20020049223A1, “Quinoline and naphthyridine carboxylic acid antibacterials” (priority 1999, published 2002):

What was measured:
[1] = tested on: Streptococcus pneumoniae ATCC 6303; experiment: Assay A: in vitro antibacterial activity, agar dilution MIC; assay type: cell-based; conditions: Table 1, Assay A, BHI agar, 35-37° C., about 20 to 24 hours; code F = Streptococcus pneumoniae ATCC 6303; unit assumed
Experimental: (§1) Assay A. Determination of Biological Activity In Vitro Assay of Antibacterial Activity
(§2) Representative compounds of the invention were assayed in vitro for antibacterial activity. Twelve petri dishes containing successive aqueous dilutions of the test compound mixed with sterilized Brain Heart Infusion (BHI) agar (Difco 0418-01-5) (10 mL) were prepared. Each plate was inoculated with 1:100 (or 1:10 for slow-growing strains, such as Micrococcus and Streptococcus) dilutions of up to 32 different microorganisms using a Steers replicator block. The inoculated plates were incubated at 35-37° C. for about 20 to about 24 hours. In addition, a control plate with BHI agar and no test compound was prepared and incubated at the beginning and end of each test.
(§3) An additional plate containing a compound having known susceptibility patterns for the organisms being tested and belonging to the same antibiotic class as the test compound was also prepared and incubated as a further control and to provide test-to-test comparability. Ciprofloxacin was used for this purpose.
(§4) After incubation, each plate was visually inspected. The minimum inhibitory concentration (MIC) was defined as the lowest concentration of drug yielding no growth, a slight haze, or sparsely isolated colonies on the inoculum spot as compared to the growth control.

[2] = tested on: Haemophilus influenzae DILL AMP R; experiment: as above; assay type: cell-based; conditions: Table 1, Assay A, BHI agar, 35-37° C., about 20 to 24 hours; code E = Haemophilus influenzae DILL AMP R; unit assumed
Experimental: as §1, §2, §3, §4

[3] = tested on: Moraxella catarrahalis 2604; experiment: as above; assay type: cell-based; conditions: Table 1, Assay A, BHI agar, 35-37° C., about 20 to 24 hours; code C = Moraxella catarrahalis 2604; unit assumed
Experimental: as §1, §2, §3, §4

[4] = tested on: Enterococcus faecalis PIU 1967; experiment: as above; assay type: cell-based; conditions: Table 1, Assay A, BHI agar, 35-37° C., about 20 to 24 hours; code B = Enterococcus faecalis PIU 1967; unit assumed
Experimental: as §1, §2, §3, §4

[5] = tested on: Escherichia coli JUHL; experiment: as above; assay type: cell-based; conditions: Table 1, Assay A, BHI agar, 35-37° C., about 20 to 24 hours; code D = Escherichia coli JUHL; unit assumed
Experimental: as §1, §2, §3, §4

[6] = tested on: Staphylococcus aureus ATCC 6538P; experiment: as above; assay type: cell-based; conditions: Table 1, Assay A, BHI agar, 35-37° C., about 20 to 24 hours; code A = Staphylococcus aureus ATCC 6538P; unit assumed
Experimental: as §1, §2, §3, §4

Row | SMILES | Antibacterial Activity (MIC's), F [1] [µg/mL] | Antibacterial Activity (MIC's), E [2] [µg/mL] | Antibacterial Activity (MIC's), C [3] [µg/mL] | Antibacterial Activity (MIC's), B [4] [µg/mL] | Antibacterial Activity (MIC's), D [5] [µg/mL] | Antibacterial Activity (MIC's), A [6] [µg/mL] | melting point
1 | COc1c(-c2cc3c(s2)CCNC3)ccc2c(=O)c(C(=O)O)cn(C3CC3)c12.Cl [Example 2, 1-cyclopropyl-8-methoxy-4-oxo-7-(4,5,6,7-tetrahydrothieno[3,2-c]pyridin-2-yl)-1,4-dihydro-3-quinolinecarboxylic acid hydrochloride] | 0.5 | 0.12 | 0.2 | 0.2 | 0.2 | 0.05 | 180 °C (dec.)
2 | COc1c(-c2cc3c(s2)CNCC3)ccc2c(=O)c(C(=O)O)cn(C3CC3)c12.Cl [Example 7, 1-cyclopropyl-8-methoxy-4-oxo-7-(4,5,6,7-tetrahydrothieno(2,3-c)pyridin-2-yl)-1,4-dihydro-3-quinolinecarboxylic acid hydrochloride] | 0.25 | 0.06 | 0.2 | 0.39 | 0.2 | 0.2 | 188 to 189 °C
3 | Cl.O=C(O)c1cn(C2CC2)c2nc(-c3cc4c(s3)CNCC4)c(F)cc2c1=O [Example 9, 1-cyclopropyl-6-fluoro-4-oxo-7-(4,5,6,7-tetrahydrothieno(2,3-c)pyridin-2-yl)-1,4-dihydro[1,8]naphthyridine-3-carboxylic acid hydrochloride] | 0.125 | 0.06 | 0.1 | 0.2 | 0.1 | 0.1 | 290 to 291 °C
4 | Br.CC1NCCc2sc(-c3ccc4c(=O)c(C(=O)O)cn(C5CC5)c4c3OC(F)F)cc21 (stereo not shown) [Example 20, 1-cyclopropyl-8-(difluoromethoxy)-7-(4-methyl-4,5,6,7-tetrahydrothieno[3,2-c]pyridin-2-yl)-4-oxo-1,4-dihydro-3-quinolinecarboxylic acid hydrobromide] | 1 | 0.25 | 0.78 | 0.78 | 0.78 | 0.2 | 176 to 180 °C (dec.)
5 | CC1NCCc2cc(-c3nc4c(cc3F)c(=O)c(C(=O)O)cn4C3CC3)sc21.Cl (stereo not shown) [Example 22, 1-cyclopropyl-6-fluoro-7-(7-methyl-4,5,6,7-tetrahydrothieno(2,3-c)pyridin-2-yl)-4-oxo-1,4-dihydro[1,8]naphthyridine-3-carboxylic acid hydrochloride] | 2 | 0.25 | 0.39 | 0.78 | 0.78 | 0.2 | 293 to 294 °C
6 | COc1c(-c2cc3c(s2)CCCC3N)ccc2c(=O)c(C(=O)O)cn(C3CC3)c12.Cl (stereo not shown) [Example 40, 7-(4-amino-4,5,6,7-tetrahydro-1-benzothien-2-yl)-1-cyclopropyl-8-methoxy-4-oxo-1,4-dihydro-3-quinolinecarboxylic acid hydrochloride] | 0.125 | 0.06 | 0.1 | 0.1 | 0.2 | 0.02 | 219 to 222 °C
7 | COc1c(-c2cc3c(s2)CCC(O)C3)ccc2c(=O)c(C(=O)O)cn(C3CC3)c12 (stereo not shown) [Example 42, 1-cyclopropyl-7-(5-hydroxy-4,5,6,7-tetrahydro-1-benzothien-2-yl)-8-methoxy-4-oxo-1,4-dihydro-3-quinolinecarboxylic acid] | 0.25 | 0.125 | 0.02 | 0.39 | 0.78 | 0.02 | 232 to 233 °C
8 | O=C1CCCc2sc(-c3nc4c(cc3F)c(=O)c(C(=O)O)cn4C3CC3)cc21 [Example 48, 1-cyclopropyl-6-fluoro-4-oxo-7-(4-oxo-4,5,6,7-tetrahydro-1-benzothien-2-yl)-1,4-dihydro[1,8]naphthyridine-3-carboxylic acid] | 0.25 | 0.06 | 0.02 | 0.2 | 0.78 | 0.02 | –
9 | O=C(O)c1cn(C2CC2)c2nc(-c3cc4c(s3)CCC/C4=N\O)c(F)cc2c1=O [Example 49, 1-cyclopropyl-6-fluoro-7-((4E)-4-(hydroxyimino)-4,5,6,7-tetrahydro-1-benzothien-2-yl)-4-oxo-1,4-dihydro[1,8]naphthyridine-3-carboxylic acid] | 0.25 | 0.06 | 0.05 | 0.39 | 0.78 | 0.05 | –
10 | CC1NCCc2cc(-c3ccc4c(=O)c(C(=O)O)cn(C5CC5)c4c3OC(F)F)sc21.Cl (stereo not shown) [Example 52, 1-cyclopropyl-8-diflouromethoxy-7-(7-methyl-4,5,6,7-tetrahydrotheino(2,3-c)pyrindin-2-yl)-4-oxo-1,4-dihydro-3-quinolinecarboxylic acid hydrochloride] | 0.25 | 0.25 | 0.2 | 0.78 | 0.39 | 0.2 | –
